Experimental data published in BindingDB's records for doi:10.1016/0960-894X(95)00507-P (Eli Lilly, 1995).

Biological target: T1, Dimer of Gag-Pol polyprotein [489-587] (Human immunodeficiency virus 1, UniProt P12497)
T1 construct: 489-587
Experiment: Protease Inhibition Assay
From the text: In the presence of HIV-l protease, the substrate is rapidly cleaved into two parts. The biotinylated amino terminal fragment binds to the avidin Pandex beads while the FITC-containing carboxy1 terminal fragment is removed through the membrane.

SMILES: CC(C)[C@@H]1[C@H](OC(=O)N[C@@H](Cc2ccccc2)[C@H](O)CN2C[C@H]3CCCC[C@H]3CC2C(=O)NC(C)(C)C)CCS1(=O)=O (stereo partly drawn) [(2R,3R)-1,1-dioxo-2-(propan-2-yl)--thiolan-3-yl N-[(2S,3R)-4-[(4aS,8aS)-3-(tert-butylcarbamoyl)-decahydroisoquinolin-2-yl]-3-hydroxy-1-phenylbutan-2-yl]carbamate]
- IC50: 4.3 nM

SMILES: CC(C)[C@H]1SCC[C@H]1OC(=O)N[C@@H](Cc1ccccc1)[C@H](O)CN1C[C@H]2CCS[C@H]2CC1C(=O)NC(C)(C)C (stereo partly drawn) [(2R,3R)-2-(propan-2-yl)thiolan-3-yl N-[(2S,3R)-4-[(3aR,7aS)-6-(tert-butylcarbamoyl)-octahydrothieno[3,2-c]pyridin-5-yl]-3-hydroxy-1-phenylbutan-2-yl]carbamate]
- IC50: 0.26 nM

SMILES: CC(C)[C@H]1[C@@H](OC(=O)N[C@@H](CSc2ccccc2)[C@H](O)CN2C[C@H]3CCS[C@H]3CC2C(=O)NC(C)(C)C)CCS1(=O)=O (stereo partly drawn) [(2S,3S)-1,1-dioxo-2-(propan-2-yl)--thiolan-3-yl N-[(2R,3R)-4-[(3aR,7aS)-6-(tert-butylcarbamoyl)-octahydrothieno[3,2-c]pyridin-5-yl]-3-hydroxy-1-(phenylsulfanyl)butan-2-yl]carbamate]
- IC50: 0.95 nM

SMILES: C[C@@H]1OCC[C@@H]1OC(=O)N[C@@H](CSc1ccccc1)[C@H](O)CN1C[C@H]2CCS[C@H]2CC1C(=O)NC(C)(C)C (stereo partly drawn) [(2S,3S)-2-methyloxolan-3-yl N-[(2R,3R)-4-[(3aR,7aS)-6-(tert-butylcarbamoyl)-octahydrothieno[3,2-c]pyridin-5-yl]-3-hydroxy-1-(phenylsulfanyl)butan-2-yl]carbamate]
- IC50 (pH 5.5, 22 °C): 0.28 nM

SMILES: CC(C)(C)NC(=O)C1C[C@@H]2SCC[C@@H]2CN1C[C@@H](O)[C@H](CSc1ccccc1)NC(=O)O[C@@H]1CCS(=O)(=O)C1 (some centres not stated) [hydroxyethylene isostere]
- IC50 (pH 5.5, 22 °C): 2 nM

SMILES: CC(C)(C)NC(=O)C1C[C@@H]2SCC[C@@H]2CN1C[C@@H](O)[C@H](CSc1ccccc1)NC(=O)O[C@H]1CCS(=O)(=O)C1 (some centres not stated) [hydroxyethylene isostere]
- IC50 (pH 5.5, 22 °C): 1.7 nM

SMILES: CC(C)[C@@H]1SCC[C@@H]1OC(=O)N[C@@H](Cc1ccccc1)[C@H](O)CN1C[C@H]2CCS[C@H]2CC1C(=O)NC(C)(C)C (some centres not stated) [hydroxyethylene isostere]
- IC50: 2.6 nM

SMILES: CC(C)[C@@H]1[C@H](OC(=O)N[C@@H](CSc2ccccc2)[C@H](O)CN2C[C@H]3CCS[C@H]3CC2C(=O)NC(C)(C)C)CCS1(=O)=O (some centres not stated) [hydroxyethylene isostere]
- IC50: 0.42 nM

SMILES: CC(C)[C@@H]1[C@H](OC(=O)N[C@@H](Cc2ccccc2)[C@H](O)CN2C[C@H]3CCS[C@H]3CC2C(=O)NC(C)(C)C)CCS1(=O)=O (some centres not stated) [hydroxyethylene isostere]
- IC50: 1.3 nM

SMILES: CC(C)[C@H]1[C@@H](OC(=O)N[C@@H](Cc2ccccc2)[C@H](O)CN2C[C@H]3CCCC[C@H]3CC2C(=O)NC(C)(C)C)CCS1(=O)=O (some centres not stated) [hydroxyethylene isostere]
- IC50 (pH 5.5, 22 °C): 8.1 nM

SMILES: CC(C)[C@H]1[C@@H](OC(=O)N[C@@H](Cc2ccccc2)[C@H](O)CN2C[C@H]3CCS[C@H]3CC2C(=O)NC(C)(C)C)CCS1(=O)=O (some centres not stated) [hydroxyethylene isostere]
- IC50: 2.6 nM

SMILES: C[C@@H]1[C@@H](OC(=O)N[C@@H](CSc2ccccc2)[C@H](O)CN2C[C@H]3CCS[C@H]3CC2C(=O)NC(C)(C)C)CCS1(=O)=O (some centres not stated) [hydroxyethylene isostere]
- IC50 (pH 5.5, 22 °C): 5.2 nM

SMILES: C[C@@H]1[C@H](OC(=O)N[C@@H](CSc2ccccc2)[C@H](O)CN2C[C@H]3CCS[C@H]3CC2C(=O)NC(C)(C)C)CCS1(=O)=O (some centres not stated) [hydroxyethylene isostere]
- IC50 (pH 5.5, 22 °C): 0.75 nM

SMILES: C[C@@H]1[C@H](OC(=O)N[C@@H](Cc2ccccc2)[C@H](O)CN2C[C@H]3CCCC[C@H]3CC2C(=O)NC(C)(C)C)CCS1(=O)=O (some centres not stated) [hydroxyethylene isostere]
- IC50 (pH 5.5, 22 °C): 10 nM

SMILES: C[C@H]1OCC[C@H]1OC(=O)N[C@@H](CSc1ccccc1)[C@H](O)CN1C[C@H]2CCS[C@H]2CC1C(=O)NC(C)(C)C (some centres not stated) [hydroxyethylene isostere]
- IC50 (pH 5.5, 22 °C): 3 nM

SMILES: C[C@H]1[C@@H](OC(=O)N[C@@H](CSc2ccccc2)[C@H](O)CN2C[C@H]3CCS[C@H]3CC2C(=O)NC(C)(C)C)CCS1(=O)=O (some centres not stated) [hydroxyethylene isostere]
- IC50 (pH 5.5, 22 °C): 0.4 nM

SMILES: C[C@H]1[C@H](OC(=O)N[C@@H](CSc2ccccc2)[C@H](O)CN2C[C@H]3CCS[C@H]3CC2C(=O)NC(C)(C)C)CCS1(=O)=O (some centres not stated) [hydroxyethylene isostere]
- IC50 (pH 5.5, 22 °C): 1.4 nM
